These results are taken from ChEMBL document CHEMBL3046788, “Synthesis and antifungal activity of N-(substituted pyridinyl)-1-methyl(phenyl)-3-(trifluoromethyl)-1H-pyrazole-4-carboxamide derivatives” (Molecules, 2012).

In brackets after ≈: the same amount, converted by molar mass.

Experiment [1] deals with Fusarium oxysporum. As to the kind of experiment: Antifungal activity against Fusarium oxysporum assessed as inhibition of mycelium growth at 100 ug/ml. Type of experiment: functional. To be noted: read-out: GI.
Experiment [2] has as its system Cytospora. The experiment can be described thus: Antifungal activity against Cytospora mandshurica assessed as inhibition of mycelium growth at 100 ug/ml. It is filed as functional. The settings on record: read-out: GI.
In experiment [3] the test system is Fusarium graminearum. As to the kind of experiment: microbe, parasite or virus in culture. Type of experiment: functional. The settings on record: read-out: GI.
The subject of experiment [4] is Cytospora. The experiment can be described thus: Antifungal activity against Cytospora mandshurica assessed as inhibition of mycelium growth. Type of experiment: functional, organism-based.
In experiment [5] the test system is Fusarium oxysporum. The experiment can be described thus: Antifungal activity against Fusarium oxysporum assessed as inhibition of mycelium growth. It is filed as functional, organism-based.
Experiment [6] concerns Fusarium graminearum. The experiment can be described thus: Antifungal activity against Fusarium graminearum assessed as inhibition of mycelium growth. It is filed as functional, organism-based.

Turning to `Cn1cc(C(=O)Nc2ccc(C(F)(F)F)cn2)c(C(F)(F)F)n1`, the inhibition of growth at 100 µg/mL in experiment [1] is 39.1%; in experiment [2] it was 35.6%; in experiment [3], 51.6%.
As to `Cn1cc(C(=O)Nc2ccc(Br)cn2)c(C(F)(F)F)n1`, the EC50 in experiment [4] worked out at 132 mg/L (≈ 380 µM); in experiment [5], 97.8 mg/L (≈ 280 µM); in experiment [6], 76.3 mg/L (≈ 219 µM). Also, the inhibition of growth at 100 µg/mL was determined as 53.5% in experiment [1], 48.7% in experiment [2] and 73.2% in experiment [3].
For the compound `Cn1cc(C(=O)Nc2ccnc(Cl)c2)c(C(F)(F)F)n1`, the inhibition of growth at 100 µg/mL was 5.9% in experiment [1], 9.1% in experiment [2] and 60.1% in experiment [3].
For `Cc1cccc(NC(=O)c2cn(C)nc2C(F)(F)F)n1` the same measures were 22.3%, 20.8% and 34.7%.
In the case of `Cn1cc(C(=O)Nc2ccccn2)c(C(F)(F)F)n1`, the results for the inhibition of growth at 100 µg/mL in experiment [1], in experiment [2] and in experiment [3] were 19.5%, 9% and 40.9%, respectively.
The corresponding values for `Cn1cc(C(=O)Nc2ccncc2)c(C(F)(F)F)n1` are 11.8%, 2.9% and 26.3%.
The corresponding values for `Cc1ccnc(NC(=O)c2cn(C)nc2C(F)(F)F)c1` are 6.9%, 1.74% and 25.2%.
The corresponding values for `Cn1cc(C(=O)Nc2ccc(F)cn2)c(C(F)(F)F)n1` are 22.5%, 13.6% and 30.4%.
Take `Cn1cc(C(=O)Nc2cccnc2Cl)c(C(F)(F)F)n1`: the inhibition of growth at 100 µg/mL in experiment [1] came out at 14.9%; in experiment [2] it was 4.9%; in experiment [3], 40.4%.
The corresponding values for `Cc1ccc(NC(=O)c2cn(C)nc2C(F)(F)F)nc1` are 8.3%, 0% and 39.3%.
The corresponding values for `Cn1cc(C(=O)Nc2ccc(Cl)cn2)c(C(F)(F)F)n1` are 30.1%, 13.6% and 26%.
For `Cn1cc(C(=O)Nc2ccnc(Br)c2)c(C(F)(F)F)n1` the same measures were 10.9%, 6.4% and 25.2%.
With `O=C(Nc1ccncc1)c1cn(-c2ccccc2)nc1C(F)(F)F`, the inhibition of growth at 100 µg/mL was determined as 7.9% in experiment [1], 0% in experiment [2] and 11.3% in experiment [3].
Consider `O=C(Nc1ccnc(Cl)c1)c1cn(-c2ccccc2)nc1C(F)(F)F`, for which the results for the inhibition of growth at 100 µg/mL in experiment [1], in experiment [2] and in experiment [3] were 0%, 0% and 16.2%, respectively.
As for `O=C(Nc1ccnc(Br)c1)c1cn(-c2ccccc2)nc1C(F)(F)F`, the figures for the inhibition of growth at 100 µg/mL in experiment [1], in experiment [2] and in experiment [3] were 5.7%, 0% and 10.7%, respectively.
The corresponding values for `O=C(Nc1ccccn1)c1cn(-c2ccccc2)nc1C(F)(F)F` are 23.9%, 17% and 35.2%.
For `O=C(Nc1ccncc1Br)c1cn(-c2ccccc2)nc1C(F)(F)F` the same measures were 27.2%, 8.4% and 22.6%.
As to `Cc1cnccc1NC(=O)c1cn(-c2ccccc2)nc1C(F)(F)F`, the inhibition of growth at 100 µg/mL in experiment [1] worked out at 11.5%; in experiment [2], 6.1%; in experiment [3], 6.7%.
For `Cc1cc(NC(=O)c2cn(-c3ccccc3)nc2C(F)(F)F)ccn1` the same measures were 4.23%, 0% and 9.8%.
The corresponding values for `O=C(Nc1cccnc1)c1cn(-c2ccccc2)nc1C(F)(F)F` are 10.6%, 0% and 6.1%.
The corresponding values for `O=C(Nc1ccc(Cl)cn1)c1cn(-c2ccccc2)nc1C(F)(F)F` are 14.2%, 10.1% and 16.5%.
For the compound `Cc1ccc(NC(=O)c2cn(-c3ccccc3)nc2C(F)(F)F)nc1`, the inhibition of growth at 100 µg/mL in experiment [1] was determined as 20.5%; in experiment [2] it was 0%; in experiment [3], 6.4%.
As for `O=C(Nc1ccccc1-c1ccc(Cl)cc1)c1cccnc1Cl` [BOSCALID], the inhibition of growth at 100 µg/mL in experiment [1] amounted to 4.3%; in experiment [2], 3.4%; in experiment [3], 35.9%.
Turning to `CC1=C(C(=O)Nc2ccccc2)SCCO1` [CARBOXIN], the figures for the inhibition of growth at 100 µg/mL in experiment [1] and in experiment [3] were 23.6% and 56.3%, respectively.

A word on the EC50: it is the concentration needed to bring the measured effect to its halfway point.
